Source: patent EP0815072B1, “RADIOGRAPHIC CONTRASTING AGENT FOR COMPUTERISED TOMOGRAPHY AND UROGRAPHY” (SCHERING AKTIENGESELLSCHAFT, priority 1995, dated 1996)

Key:
[1] = Lethal dose after intravenous injection in rats; assay type: in vivo, Ratten; settings: rat, in vivo, iv; all three doses pooled, i.v., Ratten; read-out: gestorbene Tiere, alle Dosierungen (%)
Description: (§1) Die Hydrophilie wird als eine wichtige Voraussetzung für eine Verminderung der bei intravenöser Injektion beobachteten nicht osmolalitätsbedingten Nebenwirkungen angesehen (Dawson P., Clauß W.: Contrast Media in Practice, Springer Verlag Berlin Heidelberg 1993, Seite 11-12). Dazu gehören vor allem Übelkeit und Erbrechen, sowie allergieartige Reaktionen bis hin zum schweren anaphylaktoiden Schock. Andere Testergebnisse, die eine besonders gute Allgemeinverträglichkeit anzeigen, werden in biochemischen, biologischen und toxikologischen (Tab. 2) Untersuchungen gewonnen.

Ratten = assay: Lethal dose after intravenous injection in rats; assay type: in vivo; settings: i.v., Ratten (90-110 g), 300 mg Jod/ml, 2 ml/min
Description: as §1

[2] = Butanol/water (buffer pH 7) partition coefficient; assay type: physicochemical; settings: for Verteilungskoeffizient: Butanol/Wasser (Puffer pH 7), n = 4, Mittelwert ± Standardabweichung
Description: Während Osmolalität, Viskosität und Jodgehalt den strukturisomeren Verbindungen lopamidol und lomeprol sehr ähnlich sind, zeigt sich eine überraschend erhöhte Hydrophilie der erfindungsgemäßen Verbindungen (Tab. 1). Tab.1:
Die Hydrophilie wird nicht wie bei der mit lohexol bezeichneten Verbindung durch die Einführung einer zusätzlichen Hydroxyalkylfunktion erreicht (die den Jodgehalt vermindert und Viskosität und Osmolalität erhöht), sondern ist die überraschende Folge einer neuen sterischen Anordnung der Substituenten an dem jodierten Aromaten.

SMILES | mortality [1] | Zahl der gestorbenen Tiere / Gesamtzahl der Tiere (Ratten; Dosis 1: 12 g J/kg) | Zahl der gestorbenen Tiere / Gesamtzahl der Tiere (Ratten; Dosis 2: 15 g J/kg) | Zahl der gestorbenen Tiere / Gesamtzahl der Tiere (Ratten; Dosis 3: 18 g J/kg) | Verteilungskoeffizient [2] | Hydrophilie ([2]; comparison with structurally comparable compounds, from the partition coefficient)
CN(CC(O)CO)C(=O)c1c(I)c(NC(=O)CO)c(I)c(C(=O)NCC(O)CO)c1I (stereo not shown) [Beispiel 1, 5-Hydroxyacetylamino-2,4,6-triiod-isophthalsäure-[(2,3-dihydroxy-N-methyl-propyl)-(2,3-dihydroxypropyl)]-diamid] | 33% | 0/4 | 2/4 | 2/4 | 0.069 ± 0.011 | am stärksten hydrophil
CC(=O)N(CC(O)CO)c1c(I)c(C(=O)NCC(O)CO)c(I)c(C(=O)NCC(O)CO)c1I (stereo not shown) [lohexol] |  |  |  |  | 0.082 ± 0.005 | 
CN(C(=O)CO)c1c(I)c(C(=O)NCC(O)CO)c(I)c(C(=O)NCC(O)CO)c1I (stereo not shown) [lomeprol] | 89% | 2/3 | 3/3 | 3/3 | 0.105 ± 0.006 | 
C[C@H](O)C(=O)Nc1c(I)c(C(=O)NC(CO)CO)c(I)c(C(=O)NC(CO)CO)c1I [lopamidol] | 58% | 2/4 | 1/4 | 4/4 | 0.089 ± 0.014 | 
COCC(=O)Nc1c(I)c(C(=O)NCC(O)CO)c(I)c(C(=O)N(C)CC(O)CO)c1I (stereo not shown) [lopromid] | 67% | 1/4 | 3/4 | 4/4 | 0.149 ± 0.011 | 
